Data published in patent publication US10385041B2, “Terpene derivative-based PAR1 inhibitor, preparation method thereof, and use in treatment of thrombotic diseases” (SHANDONG UNIVERSITY, priority 2015, dated 2019).

Target: T1, PAR1 (Homo sapiens, UniProt P25116)
T1 sequence (P25116 22-425): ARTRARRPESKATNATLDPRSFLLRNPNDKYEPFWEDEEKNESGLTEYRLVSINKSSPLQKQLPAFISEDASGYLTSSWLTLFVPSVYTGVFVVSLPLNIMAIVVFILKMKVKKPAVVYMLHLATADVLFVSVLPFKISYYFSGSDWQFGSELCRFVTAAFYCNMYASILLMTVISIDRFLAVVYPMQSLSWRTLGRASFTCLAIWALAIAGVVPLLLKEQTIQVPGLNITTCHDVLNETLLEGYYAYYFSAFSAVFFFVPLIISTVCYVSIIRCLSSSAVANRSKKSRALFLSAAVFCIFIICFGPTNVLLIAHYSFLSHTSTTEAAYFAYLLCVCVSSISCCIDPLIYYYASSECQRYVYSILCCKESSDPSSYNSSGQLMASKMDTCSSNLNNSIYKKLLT
Test: Calcium ion influx experiment (FLIPR), PAR1 inhibition activity, HEK293-Ga15-PAR1 cell strain, agonist haTRAP
Type: cell-based
Details: HEK293-Ga15-PAR1 cells; for IC50: calcium influx, agonist haTRAP 3 μM, 4-PL fit; for Slope: slope of 4-PL dosage-effect curve, haTRAP 3 μM
Description: Embodiment 6: Determination of Biological Activity (PAR1 Inhibition Activity) of the Compound
An HEK293-Ga15-PAR1 cell strain (HD Biosciences stable cell strain) was quickly taken out of a liquid nitrogen tank, and shaken continuously in a 37° C. water bath until it was completely melted. A cell suspension was quickly added into a pre-heated culture medium (90% DMEM+10% FBS+1× Pen/Strep), placed in a centrifuge and centrifuged at 1000 rpm for 10 minutes. A centrifugal tube was taken out, the supernatant was discarded, and the fresh pre-heated culture medium was added into the centrifugal tube, cells were resuspended, and the cell suspension was added into a culture dish and cultured at 37° C. with 5% of CO2.
When the cells reached 80-90% of the culture dish, the cells were gently washed with 0.05% of trypsin-EDTA, part of digestive juice was removed, then the cells were incubated for 2-3 min, the digestion was terminated with the new culture medium, the cells were gently blew with a gun head, and the cells were resuspended. In general, the passage was performed according to 1:4 to 1:8 every 2 to 3 days.
On the day before the experiment, 1× Matrigel (Brand: BD, Cat #: 356230) was added into a clean 384-well cell plate, incubated at 37° C. for 30 minutes, and then inverted and centrifuged at 500 rpm for 30 seconds to remove the coating solution.
The cell precipitate was digested and collected, resuspended in the culture medium to 3×10^5 cells/mL, added into the coated cell plate according to 50 μL per well and then incubated at 37° C. with 5% of CO2 overnight.
On the day of the experiment, the fresh experimental buffer solution and 0.5× Calcium 4 (Brand: Molecular Devices, Cat #: R8141) loading buffer solution were prepared.
The 30 mM DMSO stock solution was first diluted with DMSO to 10 mM, and then diluted 4 times from 10 mM for a total of 10 concentrations. Ten DMSO concentration gradients of the compound were added into the experimental buffer solution at a ratio of 1:20 to prepare a working solution of the compound (5 times the final reaction concentration). After that, the working solution of the compound was transferred into a 384-well compound plate according to the layout in the following drawing for later use.
Positive control: 40 mM DMSO stock solution of the reference compound SCH79797 was diluted to 2 mM;
Negative control: 5% of DMSO prepared from the experimental buffer solution
10 mM DMSO stock of the agonist haTRAP was diluted with the experimental buffer solution to 18 μM (6 times the final reaction concentration 3 μM), and then transferred into a 384-well compound plate, at least at 25 μl/well for later use.
The cell plate incubated overnight was taken out, the cell culture medium was removed by centrifugation at 300 rpm for 30 seconds, 20 μL of freshly prepared 0.5× Calcium 4 loading buffer solution was added into every well and then incubation was performed at 37° C. with 5% of CO2 for 1 hour.
The compound working solution was transferred from the compound plate to the cell plate at 5 μL/well according to the layout, then placed at 37° C. again and incubated with 5% of CO2 for 15 minutes.
The agonist was transferred from the 384-well compound plate (FLIPR) to the cell plate at 5 μL/well according to the program set by FLIPR, and the fluorescent signals in each well of the cell plate were simultaneously read.
The inhibition rate (%) of the compound in each well on the cell plate was calculated according to the fluorescence signal values of the positive control and the negative control on each cell plate. […] The inhibition rates and the corresponding concentrations of the compounds obtained by calculation were introduced into the relevant software for graphing, and the IC50 values of the compounds were calculated according to the 4-PL dosage-effect formula. The IC50 result of the reference compound is also one of standards for testing the quality of every experiment.

C[C@]1(CO)[C@H]2CCC3(CO3)[C@@H](/C=C/c3ccc(-c4cccc(F)c4)cn3)[C@]2(C)CC[C@H]1O (stereo partly drawn) [Compound I-1]
IC50: 7.76 µM

CO[C@@H]1CC[C@]2(C)[C@H](CCC3(CO3)[C@H]2/C=C/c2ccc(-c3cccc(F)c3)cn2)[C@]1(C)CO (stereo partly drawn) [Compound I-6]
IC50: 11 µM
Slope: 1.53

C[C@]1(CO)[C@H]2CCC(CO)[C@@H](CCc3ccc(-c4cccc(C(F)(F)F)c4)cn3)[C@]2(C)CC[C@H]1O (stereo partly drawn) [Compound I-4]
IC50: 8.76 µM

COC[C@@]1(C)[C@H]2CCC3(CO3)[C@@H](/C=C/c3ccc(-c4cccc(F)c4)cn3)[C@]2(C)CC[C@H]1O (stereo partly drawn) [Compound I-5]
IC50: 7.07 µM
Slope: 2.59

C[C@]1(CO)[C@H]2CCC3(CO3)[C@@H](/C=C/c3ccc(-c4cccc(C(F)(F)F)c4)cn3)[C@]2(C)CC[C@H]1O (stereo partly drawn) [Compound I-2]
IC50: 7.95 µM

CC(C)c1ccc(Cn2ccc3c4c(N)nc(NC5CC5)nc4ccc32)cc1 [SCH79797, reference compound]
IC50: 8.71 µM
Slope: 0.95

C[C@]1(CO)[C@H]2CCC(CO)[C@@H](CCc3ccc(-c4cccc(F)c4)cn3)[C@]2(C)CC[C@H]1O (stereo partly drawn) [Compound I-3]
IC50: 8.91 µM

C[C@@]12CC[C@@H](O)[C@@](C)(C(=O)O)[C@H]1CCC1(CO1)[C@H]2/C=C/c1ccc(-c2cccc(F)c2)cn1 (stereo partly drawn) [Compound I-8]
IC50: 31.6 µM
Slope: 1.97

C[C@@]1(C(=O)O)C(=O)CC[C@@]2(C)[C@H](/C=C/c3ccc(-c4cccc(F)c4)cn3)C3(CC[C@H]12)CO3 (stereo partly drawn) [Compound I-10]
IC50: 19.7 µM
Slope: 1.23

COC(=O)[C@]1(C)[C@H](O)CC[C@@]2(C)[C@H](/C=C/c3ccc(-c4cccc(F)c4)cn3)C3(CC[C@@H]21)CO3 (stereo partly drawn) [Compound I-9]
IC50: 0.66 µM
Slope: 0.97

C[C@@]1(C=O)[C@H](O)CC[C@@]2(C)[C@H](/C=C/c3ccc(-c4cccc(F)c4)cn3)C3(CC[C@H]12)CO3 (stereo partly drawn) [Compound I-7]
IC50: 3.52 µM
Slope: 1.02
